In paper PMC8027391, “Fangchinoline suppresses conjunctival melanoma by directly binding FUBP2 and inhibiting the homologous recombination pathway” (Cell Death & Disease, 2021):
Where a name gives a salt, the structure may show the parent alone. Read-outs that look alike come from different tables or passages of the source.

Experiments:
in vitro = experiment: in vitro; design: CCK-8 growth inhibition of MRC5 normal fibroblasts (counter-screen); conditions: human, mrc5 cells
Experimental: (§1) The anti-proliferative activity of our in-house drugs against CM-AS16 cells was assessed using the Cell Counting Kit-8 (CCK-8) assay at a final concentration of 10 μM (Fig. 1A). […] These analogues were Chinese herbal monomers harbouring the same bisbenzylisoquinoline core. […] Fangchinoline harbours an exposed hydroxy group, which is suitable for synthesizing functionalized probes and subsequent target identification. […] Next, we assessed the anti-proliferative activity of fangchinoline against three other CM cell lines obtained from patients with a typical NRAS (CRMM2) or BRAF mutation (CRMM1 and CM2005.1)[26],[27]. […] To determine whether fangchinoline could suppress CM properties in vivo, an immunodeficient NCG mice xenograft model was created by subcutaneous inoculation of CM-AS16 cells. NCG mice comes from knocking out the Prkdc and IL2rg genes in NOD/ShiltJ mice through Crispr Cas9 technology. […] The average tumour volume of the control group was 204 mm^3, which was higher than that of the treated groups (50 mg/kg/day fangchinoline, tumour volume: […] CRMM1, CRMM2 and CM2005.1 were generously provided by Professor Martine J. Jager (Leiden University Medical Center, Leiden, The Netherlands)[47] and CM-AS16 was provided by Professor Renbin Jia (Shanghai Ninth People’s Hospital, Shanghai, China). A375 and HEK293T were obtained from American Type Culture Collection. CM-AS16 and CM2005.1 were maintained in 1640H medium, CRMM1 and CRMM2 were maintained in F12K medium, A375 and HEK293T were maintained in DMEM medium, and MRC5 was maintained in MEM medium. All mediums were supplemented with 10% FBS. Cells were cultured at 37 °C in an incubator, in a humidified atmosphere with 5% CO2, periodically checked for mycoplasma-free and validated by short tandem repeats (STR) DNA analysis at BGI Tech Solutions (Beijing Liuhe) Co., Limited.

CM2005.1 = experiment: cells; design: CCK-8 anti-proliferation assay in conjunctival melanoma cell lines
Experimental: as §1

CRMM2 = experiment: cells; design: CCK-8 anti-proliferation assay in conjunctival melanoma cell lines
Experimental: as §1

CRMM1 = experiment: cells; design: CCK-8 anti-proliferation assay in conjunctival melanoma cell lines
Experimental: as §1

CM-AS16 = experiment: cells; design: CCK-8 anti-proliferation assay in conjunctival melanoma cell lines
Experimental: as §1

[1] = biological target: T1, far upstream element binding protein 2 (FUBP2) (Homo sapiens, UniProt Q92945); experiment: microscale thermophoresis (MST, Monolith NT.[…]) with EGFP-labelled FUBP2 from transfected HEK293T cells
T1 construct: gene KHSRP; FUBP2 labelled with enhanced green fluorescent protein, obtained from HEK293T cells transfected with plasmids
T1 sequence (Q92945 2-711): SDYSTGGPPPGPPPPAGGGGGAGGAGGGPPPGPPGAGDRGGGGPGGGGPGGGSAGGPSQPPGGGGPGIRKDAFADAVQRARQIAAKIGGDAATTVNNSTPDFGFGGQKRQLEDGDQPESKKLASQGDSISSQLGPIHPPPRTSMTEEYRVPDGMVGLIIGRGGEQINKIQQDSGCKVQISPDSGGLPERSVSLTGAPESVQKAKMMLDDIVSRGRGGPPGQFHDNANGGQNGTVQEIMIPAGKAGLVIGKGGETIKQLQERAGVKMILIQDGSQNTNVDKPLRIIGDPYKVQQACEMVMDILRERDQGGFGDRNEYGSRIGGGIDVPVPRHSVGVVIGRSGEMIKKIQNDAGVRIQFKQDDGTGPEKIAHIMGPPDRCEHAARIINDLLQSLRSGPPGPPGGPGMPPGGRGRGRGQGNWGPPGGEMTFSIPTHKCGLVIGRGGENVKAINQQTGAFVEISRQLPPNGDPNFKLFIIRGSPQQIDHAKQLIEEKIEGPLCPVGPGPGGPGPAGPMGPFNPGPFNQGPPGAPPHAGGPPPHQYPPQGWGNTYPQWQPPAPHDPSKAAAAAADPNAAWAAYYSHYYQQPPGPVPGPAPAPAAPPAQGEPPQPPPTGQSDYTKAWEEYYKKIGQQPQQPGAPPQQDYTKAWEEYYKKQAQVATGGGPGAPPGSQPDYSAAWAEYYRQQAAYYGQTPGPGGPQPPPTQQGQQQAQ

[2] = CM2005.1; read-out: IC50 (μM) CM2005.1
[3] = Homo sapiens, CRMM-2; read-out: IC50 (μM) CRMM2
[4] = Homo sapiens, CRMM-1; read-out: IC50 (μM) CRMM1
[5] = CM-AS16; read-out: IC50 (μM) CM-AS16

Row | SMILES | CC50 (in vitro) | IC50 (CM2005.1; CM2005.1, read-out: IC50 (μM) CM2005.1) | IC50 (CRMM2; Homo sapiens, CRMM-2, read-out: IC50 (μM) CRMM2) | IC50 (CRMM1; Homo sapiens, CRMM-1, read-out: IC50 (μM) CRMM1) | IC50 (CM-AS16; CM-AS16, read-out: IC50 (μM) CM-AS16) | CC50 (in vitro; read-out: IC50 (μM) MRC5) | IC50 (CM2005.1; [2]) | IC50 (CRMM2; [3]) | IC50 (CRMM1; [4]) | IC50 (CM-AS16; [5]) | Kd [1]
1 | COc1cc2c3cc1Oc1c(OC)c(OC)cc4c1[C@@H](Cc1cccc(c1)Oc1ccc(c(O)c1)C[C@@H]3N(C)CC2)N(C)CC4 [Berbamine Hydrochloride] | 9.03 ± 0.22 µM | 20.2 ± 0.49 µM | 4.14 ± 0.5 µM | 8.16 ± 0.13 µM | 8.46 ± 0.22 µM | – | – | – | – | – | –
2 | COc1ccc2cc1Oc1ccc(cc1)C[C@H]1c3c(cc4c(c3Oc3cc5c(cc3OC)CCN(C)[C@@H]5C2)OCO4)CCN1C [Cepharanthine] | – | – | – | – | – | 8.44 ± 0.54 µM | 7.44 ± 0.08 µM | 0.792 ± 0.013 µM | 4.69 ± 0.17 µM | 1.63 ± 0.24 µM | –
3 | Cn1cnc2c(F)c(Nc3ccc(Br)cc3F)c(C(=O)NOCCO)cc21 [MEK162] | – | – | – | – | – | 6.32 ± 0.16 µM | 0.068 ± 0.008 µM | 0.0136 ± 0.0006 µM | > 50 µM | 0.0077 ± 0.0016 µM | –
4 | COc1ccc2cc1Oc1ccc(cc1)C[C@H]1c3cc(c(OC)cc3CCN1C)Oc1c(OC)c(OC)cc3c1[C@H](C2)N(C)CC3 [Tetrandrine] | – | – | – | – | – | 5.75 ± 0.11 µM | 9.7 ± 0.07 µM | 2.16 ± 0.02 µM | 4.77 ± 0.24 µM | 3.2 ± 0.06 µM | –
5 | COc1ccc2cc1Oc1ccc(cc1)C[C@H]1c3cc(c(OC)cc3CCN1C)Oc1c(O)c(OC)cc3c1[C@H](C2)N(C)CC3 [fangchinoline] | – | – | – | – | – | 4.35 ± 0.11 µM | 7.4 ± 0.45 µM | 3.6 ± 0.05 µM | 2.68 ± 0.07 µM | 5.67 ± 0.17 µM | 246 µM
